Results on one compound are retold here after ChEMBL document CHEMBL5247625, “Discovery and characterization of novel potent BCR-ABL degraders by conjugating allosteric inhibitor” (Eur J Med Chem, 2022).

Test [1] has as its target Crk-like protein (Homo sapiens) (UniProt P46109). Briefly: Inhibition of CRKL phosphorylation at Tyr207 residue in human K562 cells at 100 nM incubated for 6 hrs followed by compound washout measured upto 96 hrs by Western blotting analysis. The test is classed as cell-based.
For test [2] the target is unchanged. Briefly: Inhibition of CRKL phosphorylation at Tyr207 residue in human K562 cells at 100 nM by Western blotting analysis. It counts as cell-based. The note with it: time <= 18.0 hrs, TDE = time-dependent effect.
The subject of test [3] is Protein cereblon/Tyrosine-protein kinase ABL1/Breakpoint cluster region protein (Mus musculus), P00519+P11274+Q8C7D2 [G671R]. In words: Protac activity at CRBN/asciminib resistance BCR-ABL G671R mutant in mouse 32D cells assessed as increase in BCR-ABL degradation at 1 to 1000 nM by Western blotting analysis. It counts as cell-based. The following applies: dose 1-1000 nM.

Test [4] deals with Crk-like protein (Homo sapiens) (UniProt P46109). Briefly: Inhibition of CRKL phosphorylation at Tyr207 residue in human K562 cells at 0.3 to 100 nM incubated for 16 hrs by Western blotting analysis. The following applies: dose 0.3-100 nM. The test is classed as cell-based.
Sequence of Crk-like protein (Homo sapiens) (P46109 whole entry): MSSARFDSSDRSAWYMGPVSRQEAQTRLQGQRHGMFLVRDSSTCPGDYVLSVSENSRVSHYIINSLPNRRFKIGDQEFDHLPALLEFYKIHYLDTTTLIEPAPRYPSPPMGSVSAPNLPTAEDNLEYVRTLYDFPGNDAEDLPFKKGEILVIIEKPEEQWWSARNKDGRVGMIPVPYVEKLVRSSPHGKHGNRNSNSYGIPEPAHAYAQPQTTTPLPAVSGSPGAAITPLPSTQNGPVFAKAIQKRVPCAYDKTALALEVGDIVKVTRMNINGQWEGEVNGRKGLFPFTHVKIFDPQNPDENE
Test [5] addresses T1, Signal transducer and activator of transcription 5A (Homo sapiens) (UniProt P42229).
T1 sequence (whole entry): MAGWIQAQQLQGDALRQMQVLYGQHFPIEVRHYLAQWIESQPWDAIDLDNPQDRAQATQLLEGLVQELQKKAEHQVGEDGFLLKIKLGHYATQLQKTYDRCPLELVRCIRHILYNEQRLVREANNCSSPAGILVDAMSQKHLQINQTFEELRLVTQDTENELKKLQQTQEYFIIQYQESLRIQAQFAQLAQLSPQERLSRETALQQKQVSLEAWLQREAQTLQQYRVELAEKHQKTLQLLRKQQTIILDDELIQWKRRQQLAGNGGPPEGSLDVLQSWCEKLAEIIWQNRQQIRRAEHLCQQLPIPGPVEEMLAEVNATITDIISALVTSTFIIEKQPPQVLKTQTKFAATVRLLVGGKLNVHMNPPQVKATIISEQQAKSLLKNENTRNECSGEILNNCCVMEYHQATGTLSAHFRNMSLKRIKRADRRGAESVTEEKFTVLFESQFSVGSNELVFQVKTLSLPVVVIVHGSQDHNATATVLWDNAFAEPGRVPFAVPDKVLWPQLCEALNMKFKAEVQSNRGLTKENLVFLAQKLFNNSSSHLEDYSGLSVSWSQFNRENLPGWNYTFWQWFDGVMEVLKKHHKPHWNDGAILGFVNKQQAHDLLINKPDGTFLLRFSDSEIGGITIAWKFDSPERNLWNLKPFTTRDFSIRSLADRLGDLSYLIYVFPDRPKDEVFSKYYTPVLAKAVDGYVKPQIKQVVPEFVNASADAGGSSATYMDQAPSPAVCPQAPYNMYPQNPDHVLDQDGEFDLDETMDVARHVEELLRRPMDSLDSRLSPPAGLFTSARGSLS
In words: Inhibition of STAT5 phosphorylation at Tyr694 residue in human K562 cells at 100 nM by Western blotting analysis. It counts as cell-based. The note with it: time <= 18.0 hrs, TDE = time-dependent effect.

Test [6] relates to K562. In words: Down regulation of IKZF3 expression in human K562 cells at 100 nM measured after 16 hrs by LC-MS analysis. It counts as functional, cell-based.
In test [7] the test system is K562. Briefly: cells. The note with it: Homo sapiens, K562, 48 h.
Description: Antiproliferative activity against human K562 cells assessed as inhibition of cell growth incubated for 2 days by CCK8 assay
In test [8] the test system is Protein cereblon/Tyrosine-protein kinase ABL1/Breakpoint cluster region protein (Mus musculus), P00519+P11274+Q8C7D2 [T315M]. Briefly: Protac activity at CRBN/asciminib resistance BCR-ABL T315M mutant in mouse 32D cells assessed as increase in BCR-ABL degradation at 1 to 1000 nM by Western blotting analysis. It counts as cell-based. The note with it: dose 1-1000 nM.

The test system of test [9] is K562. In words: Induction of cell death in human K562 cells assessed as inhibition of cell growth at 100 nM incubated for 6 hrs followed by compound washout measured upto 96 hrs. The test is classed as functional, cell-based.
Test [10] relates to K562. In words: Cytotoxicity against human K562 cells assessed as inhibition of cell growth at 100 nM incubated for 6 hrs followed by compound washout measured upto 96 hrs. It counts as functional, cell-based.
Test [11] concerns the target T1, Signal transducer and activator of transcription 5A (Homo sapiens). Briefly: Inhibition of STAT5 phosphorylation at Tyr694 residue in human K562 cells at 100 nM incubated for 6 hrs followed by compound washout measured upto 96 hrs by Western blotting analysis. The test is classed as cell-based.
Test [12] has as its target T2, Bcr/Abl fusion protein (Homo sapiens) (UniProt P00519+P11274). Briefly: Inhibition of BCR-ABL phosphorylation at Tyr245 residue in human K562 cells at 100 nM incubated for 6 hrs followed by compound washout measured upto 96 hrs by Western blotting analysis. The test is classed as cell-based.
For test [13], the target named is T3, Protein cereblon/Tyrosine-protein kinase ABL1/Breakpoint cluster region protein (Homo sapiens, UniProt P00519+P11274+Q96SW2). In words: Protac activity at CRBN/BCR-ABL in human K562 cells assessed as induction of BCR-ABL degradation at 100 nM pretreated with asciminib for 2 hrs followed by compound addition measured after 8 hrs by Western blotting analysis. The note with it: time 10.0 hrs. The test is classed as cell-based.
T3 sequence (P00519 whole entry, looked up): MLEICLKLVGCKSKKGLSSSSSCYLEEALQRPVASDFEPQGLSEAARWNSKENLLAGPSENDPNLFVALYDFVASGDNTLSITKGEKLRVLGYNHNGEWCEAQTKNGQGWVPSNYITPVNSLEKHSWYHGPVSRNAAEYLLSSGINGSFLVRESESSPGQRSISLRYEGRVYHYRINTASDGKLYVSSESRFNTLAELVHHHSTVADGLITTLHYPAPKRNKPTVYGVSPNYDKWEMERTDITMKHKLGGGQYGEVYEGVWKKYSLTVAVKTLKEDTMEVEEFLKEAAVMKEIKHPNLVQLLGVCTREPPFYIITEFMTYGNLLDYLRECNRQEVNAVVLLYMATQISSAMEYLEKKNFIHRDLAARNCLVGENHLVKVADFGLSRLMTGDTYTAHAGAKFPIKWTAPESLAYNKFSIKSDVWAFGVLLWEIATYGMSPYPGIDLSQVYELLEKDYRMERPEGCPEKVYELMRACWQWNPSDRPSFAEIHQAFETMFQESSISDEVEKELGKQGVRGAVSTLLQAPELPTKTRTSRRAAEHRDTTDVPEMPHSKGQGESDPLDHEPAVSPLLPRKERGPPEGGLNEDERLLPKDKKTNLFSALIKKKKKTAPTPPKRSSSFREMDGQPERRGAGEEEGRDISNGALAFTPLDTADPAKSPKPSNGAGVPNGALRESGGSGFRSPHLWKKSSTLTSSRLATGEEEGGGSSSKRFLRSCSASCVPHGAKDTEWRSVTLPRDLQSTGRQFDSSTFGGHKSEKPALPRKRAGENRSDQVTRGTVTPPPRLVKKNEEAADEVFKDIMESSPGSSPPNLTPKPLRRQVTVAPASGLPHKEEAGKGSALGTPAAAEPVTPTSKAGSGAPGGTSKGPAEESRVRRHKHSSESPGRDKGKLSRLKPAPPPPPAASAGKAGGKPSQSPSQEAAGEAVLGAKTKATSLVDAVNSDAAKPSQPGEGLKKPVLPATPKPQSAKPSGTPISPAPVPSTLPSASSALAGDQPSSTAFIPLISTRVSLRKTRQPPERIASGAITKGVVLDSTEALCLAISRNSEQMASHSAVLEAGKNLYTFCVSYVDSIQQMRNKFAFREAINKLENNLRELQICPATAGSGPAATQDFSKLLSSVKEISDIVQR
T3 sequence (P11274 whole entry, looked up): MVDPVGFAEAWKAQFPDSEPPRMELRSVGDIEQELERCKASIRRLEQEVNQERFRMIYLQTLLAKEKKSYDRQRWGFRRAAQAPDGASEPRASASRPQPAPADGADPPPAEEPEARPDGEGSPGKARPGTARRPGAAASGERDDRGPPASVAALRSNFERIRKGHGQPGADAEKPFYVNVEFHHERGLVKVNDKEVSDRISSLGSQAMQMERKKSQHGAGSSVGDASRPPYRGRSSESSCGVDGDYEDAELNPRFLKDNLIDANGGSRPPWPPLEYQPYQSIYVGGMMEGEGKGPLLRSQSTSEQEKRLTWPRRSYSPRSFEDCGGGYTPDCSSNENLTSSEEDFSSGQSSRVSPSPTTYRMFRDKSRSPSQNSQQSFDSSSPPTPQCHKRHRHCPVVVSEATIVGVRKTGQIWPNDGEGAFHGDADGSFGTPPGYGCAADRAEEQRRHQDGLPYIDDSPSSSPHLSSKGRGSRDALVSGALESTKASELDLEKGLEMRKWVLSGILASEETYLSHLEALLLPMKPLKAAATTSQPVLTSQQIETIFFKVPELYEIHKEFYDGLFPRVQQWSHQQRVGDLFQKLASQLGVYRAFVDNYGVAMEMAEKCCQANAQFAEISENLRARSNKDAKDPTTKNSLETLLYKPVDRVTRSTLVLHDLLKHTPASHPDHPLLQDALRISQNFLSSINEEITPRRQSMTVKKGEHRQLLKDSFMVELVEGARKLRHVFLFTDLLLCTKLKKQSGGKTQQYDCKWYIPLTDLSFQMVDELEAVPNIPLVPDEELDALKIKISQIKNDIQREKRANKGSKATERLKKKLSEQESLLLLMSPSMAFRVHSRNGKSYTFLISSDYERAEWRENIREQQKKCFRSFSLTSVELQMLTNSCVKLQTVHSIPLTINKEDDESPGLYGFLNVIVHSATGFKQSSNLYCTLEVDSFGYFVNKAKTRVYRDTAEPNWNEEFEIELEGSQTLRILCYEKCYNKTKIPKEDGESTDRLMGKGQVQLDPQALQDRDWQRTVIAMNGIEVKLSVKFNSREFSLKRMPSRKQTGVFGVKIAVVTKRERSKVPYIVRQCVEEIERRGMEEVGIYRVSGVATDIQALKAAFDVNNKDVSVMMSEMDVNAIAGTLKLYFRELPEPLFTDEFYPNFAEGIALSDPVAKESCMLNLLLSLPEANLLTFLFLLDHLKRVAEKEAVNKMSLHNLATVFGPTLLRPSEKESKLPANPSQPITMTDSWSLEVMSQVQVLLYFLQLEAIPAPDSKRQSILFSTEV
T3 sequence (Q96SW2 whole entry, looked up): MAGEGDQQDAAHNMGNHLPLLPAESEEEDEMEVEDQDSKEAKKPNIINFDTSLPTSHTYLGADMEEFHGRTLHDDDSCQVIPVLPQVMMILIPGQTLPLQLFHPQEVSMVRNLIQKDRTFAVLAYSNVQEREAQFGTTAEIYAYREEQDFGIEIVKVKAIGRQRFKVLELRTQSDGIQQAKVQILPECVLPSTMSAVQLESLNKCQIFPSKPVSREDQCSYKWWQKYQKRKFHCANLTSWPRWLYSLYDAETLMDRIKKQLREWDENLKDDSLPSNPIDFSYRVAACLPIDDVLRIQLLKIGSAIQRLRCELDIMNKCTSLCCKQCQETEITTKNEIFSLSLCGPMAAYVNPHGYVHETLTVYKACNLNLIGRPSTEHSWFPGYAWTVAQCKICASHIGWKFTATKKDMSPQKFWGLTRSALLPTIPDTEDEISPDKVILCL

The target in test [14] is T3, Protein cereblon/Tyrosine-protein kinase ABL1/Breakpoint cluster region protein. Briefly: Protac activity at CRBN/BCR-ABL in human K562 cells assessed as induction of c-ABL degradation at 100 nM pretreated with MLN4924 for 2 hrs followed by compound addition measured after 8 hrs by Western blotting analysis. It counts as cell-based. The note with it: time 10.0 hrs.

Test [15] concerns Protein cereblon/Tyrosine-protein kinase ABL1/Breakpoint cluster region protein (Mus musculus), P00519+P11274+Q8C7D2 [K294E]. Briefly: Protac activity at CRBN/asciminib resistance BCR-ABL K294E mutant in mouse 32D cells assessed as increase in BCR-ABL degradation at 1 to 1000 nM by Western blotting analysis. The note with it: dose 1-1000 nM. The test is classed as cell-based.

The target of test [16] is T3, Protein cereblon/Tyrosine-protein kinase ABL1/Breakpoint cluster region protein. In words: Protac activity at CRBN/BCR-ABL in human K562 cells assessed as increase in BCR-ABL degradation at 100 nM incubated for 6 hrs by Western blotting analysis. It counts as cell-based.
For test [17] the target is unchanged. Briefly: Protac activity at CRBN/BCR-ABL in human K562 cells assessed as induction of c-ABL degradation at 100 nM pretreated with asciminib for 2 hrs followed by compound addition measured after 8 hrs by Western blotting analysis. It counts as cell-based. The note with it: time 10.0 hrs.
The target is the same in test [18]. In words: Protac activity at CRBN/BCR-ABL in human K562 cells assessed as increase in BCR-ABL degradation at 100 nM incubated for 6 hrs followed by compound washout measured upto 96 hrs by Western blotting analysis. The test is classed as cell-based.
For test [19] the target is unchanged. Briefly: Protac activity at CRBN/BCR-ABL in human K562 cells assessed as increase in BCR-ABL degradation at 0.3 to 100 nM incubated for 16 hrs by Western blotting analysis relative to control. It counts as cell-based. The note with it: dose 0.3-100 nM.
For test [20], the target named is Tyrosine-protein kinase ABL1 (Homo sapiens, UniProt P00519). Briefly: Binding affinity to recombinant ABL (unknown origin).
Sequence of Tyrosine-protein kinase ABL1 (P00519 whole entry, the tested form may be a part): as the sequence (P00519 whole entry, looked up) above
The target of test [21] is T2, Bcr/Abl fusion protein (Homo sapiens). In words: Inhibition of BCR-ABL phosphorylation at Tyr245 residue in human K562 cells at 0.3 to 100 nM incubated for 16 hrs by Western blotting analysis. It counts as cell-based. The following applies: dose 0.3-100 nM.
The target of test [22] is T3, Protein cereblon/Tyrosine-protein kinase ABL1/Breakpoint cluster region protein. Briefly: Protac activity at CRBN/BCR-ABL in human K562 cells assessed as induction of BCR-ABL degradation at 100 nM by Western blotting analysis. The test is classed as cell-based. The following applies: time 4.0 hrs, TDE = time-dependent effect.

pIC50, pKd: −log10 of the molar value. Activity calls are given as the source filed them. No cut-off for these calls is given here.

T2 sequence (P00519 whole entry, looked up, the tested form may be a part): as the sequence (P00519 whole entry, looked up) above
T2 sequence (P11274 whole entry, looked up, the tested form may be a part): as the sequence (P11274 whole entry, looked up) above

As for `O=C1CCC(N2Cc3c(SCCCCCCN4CCN(C5CCN(c6ncc(C(=O)Nc7ccc(OC(F)(F)Cl)cc7)cc6-c6ccn[nH]6)CC5)CC4)cccc3C2=O)C(=O)N1` (configuration not stated), the inhibition result in test [1], in test [11] and in test [12] was “inactive” each time. Also, the inhibition entry in test [2] and in test [5] was “Tde” in each case. Besides, the result (in test [3]; with K562 [6]; in [8]; with K562 [9]; in the test on K562 [10]; in test [15]) was Active. Also, the result in test [16] was Active. In addition, the inhibition entry in test [4] and in [21] was “Active” in each case. The same compound gave a pIC50 in the test on K562 [7] of 7.92. For the same compound, the outcome in test [13], in test [14], in [17] and in [18] was inactive. The Emax in [19] was 91.2%. Further, the pKd in [20] was 5.32. In [22], the Activity result is “Tde”.
